Measured values: US6753442B1, “Amorphous nitric esters and their pharmaceutical compositions” (Nicox S.A., priority 1999, dated 2004)

What was measured:
[1] = Dissolution rate test in deionized water (USP XXIII apparatus, UV 235 nm); format: physicochemical; conditions: for % of active principle passed in solution after 10 minutes: as stated in the text of the Examples; for % by weight of the active principle passed in solution: 30 mg active principle in 1000 ml deionized water, 37°C, 100 rpm
Protocol: The dissolution rate test is carried out in a dissolving equipment according to United States Pharmacopeia 23 by using a volume of deionized water of 1000 ml. The blade stirrer speed is of 100 rpm and the temperature is 37±0.5° C.
In a little glass vessel an exact amount of each sample is weighed so that it contains an amount of the active principle equal to 30 mg, which is directly introduced in the vessel containing the deionized water. At predetermined times, respectively of 5, 10, 15, 30, 45, 50, 60, 90 and 120 minutes from the beginning of the test, the amount of the nitroderivative compound passed in solution is determined, by measuring the concentration w/v (weigh/volume) thereof by UV spectrophotometry at the wave length of 235 nm, using a calibration line. The data are expressed as percentage of nitroderivative compound passed in solution in connection with the time. The amount of the compound of formula (I) passed in solution at the time of 10 minutes is at least about 10 times higher with respect to that of the nitroderivative compound not in amorphous form.
The dissolution rate of 3-(nitroxymethyl)phenyl ester of the acetylsalicylic acid as such and in the preparations containing it according to the examples described hereinafter, has been carried out in a dissolving equipment according to USP (United States Pharmacopeia) XXIII.
The test is carried out by using a volume of deionized water of 1000 ml. The angle rate of the blade stirrer is of 100 rpm and the temperature of 37±0.5° C.
In a little glass vessel an exact amount of each preparation to be tested is weighed so that it contains an amount of the active principle equal to 30 mg, which is directly introduced in the vessel. At predetermined times, respectively of 5, 10, 15, 30, 45, 50, 60, 90 and 120 minutes from the beginning of the test the amount of the compound passed in solution is determined, by measuring the concentration w/v thereof by UV spectrophotometry at the wave length of 235 nm, using a calibration line. The data are expressed as percentage of active principle passed in solution in connection with the time.

[2] = Crystallinity loss (amorphization degree) by DSC; format: physicochemical; conditions: result in words
Protocol: The amorphization degree can be measured by well known methods such as for example DSC, RX, IR, etc. […] The amorphization degree is determined by DSC as variation reduction) of the subtended area of the endothermic melting peak of the active principle. When the amorphization is complete, the melting peak characteristic of the active principle of formula (I) substantially disappears. This means that there is a variation of the enthalpy associated to the melting peak. The specific melting enthalpy ΔH (Joule/g) of the product as such and of the product treated with processes able to decrease the crystallinity (formulation) thereof, is determined by DSC analysis. The percent crystallinity loss is evaluated by the following equation: [formula] The scanning parameters adopted for the DSC analysis are the following: Scanning range: from 30° C. min. to 330° C. max Scanning rate: 10 K/min

SMILES | % of active principle passed in solution after 10 minutes [1] | % by weight of the active principle passed in solution ([1]; time 5 minutes, listed as Ex. 1) | % by weight of the active principle passed in solution ([1]; time 10 minutes, listed as Ex. 1) | % by weight of the active principle passed in solution ([1]; time 15 minutes, listed as Ex. 1) | % by weight of the active principle passed in solution ([1]; time 30 minutes, listed as Ex. 1) | % by weight of the active principle passed in solution ([1]; time 45 minutes, listed as Ex. 1) | % by weight of the active principle passed in solution ([1]; time 60 minutes, listed as Ex. 1) | % by weight of the active principle passed in solution ([1]; time 90 minutes, listed as Ex. 1) | % by weight of the active principle passed in solution ([1]; time 120 minutes, listed as Ex. 1) | crystalline state of the active principle by DSC analysis [2] | % by weight of the active principle passed in solution ([1]; time 0 minutes) | % by weight of the active principle passed in solution ([1]; time 5 minutes) | % by weight of the active principle passed in solution ([1]; time 10 minutes) | % by weight of the active principle passed in solution ([1]; time 15 minutes) | % by weight of the active principle passed in solution ([1]; time 30 minutes) | % by weight of the active principle passed in solution ([1]; time 45 minutes) | % by weight of the active principle passed in solution ([1]; time 60 minutes) | % by weight of the active principle passed in solution ([1]; time 90 minutes) | % by weight of the active principle passed in solution ([1]; time 120 minutes)
CC(=O)Oc1ccccc1C(=O)Oc1cccc(CO[N+](=O)[O-])c1 [Example 1, 3-(nitroxymethyl)phenyl ester of the acetylsalicylic acid] | 0.3% | 0.1 % by weight | 0.3 % by weight | 0.4 % by weight | 0.8 % by weight | 1.2 % by weight | 1.6 % by weight | 2.4 % by weight | 3.1 % by weight | completely crystalline | – | – | – | – | – | – | – | – | –
CC(=O)Oc1ccccc1C(=O)Oc1cccc(CO[N+](=O)[O-])c1 [Example 7, 3-(nitroxymethyl)phenyl ester of the acetylsalicylic acid] | 0.5% | – | – | – | – | – | – | – | – | completely crystalline form | 0.0 % by weight | 0.3 % by weight | 0.5 % by weight | 0.8 % by weight | 1.5 % by weight | 2.2 % by weight | 2.7 % by weight | 4.0 % by weight | 5.2 % by weight
